Tests used:
mTRPA1 = target: T1, mTRPA1 (Mus musculus, UniProt Q8BLA8); experiment: IonWorks Barracuda (IWB) automated patch clamp, TRPA1 inhibitory activity; format: cell-based; conditions: HEK293 cells stably expressing mTRPA1, current induced by AITC, amplitude at +100 mV; read-out: IC50 (inhibition activity on TRPA1)
T1 construct: expressed in transfected cells
Method: In this example, the inhibitory activity of the compounds prepared in some examples of the present invention on transient receptor potential channel protein ankyrin 1 (TRPA1) was tested. Among them, compound of formula A (WO2010075353) was used as the positive control compound: […]
Test method using IonWorks Barracuda (IWB) automated patch clamp detection: HEK293 cells stably expressing mTRPA1 were placed in the T175 culture flask with DMEM medium containing 15 µg/mL Blasticidin S HCl, 200 µg/mL Hygromycin B and 10% FBS, and cultured in 37° C., 5% CO2 incubator. When the cell density reached about 80%, the culture medium was removed, washed once with phosphate buffered saline (PBS) without calcium and magnesium. 3 mL of Trypsin was added to digest for 2 min, 7 mL of culture solution was added to terminate the digestion. The cells were collected to 15 mL centrifuge tube and centrifuged at 800 rpm for 3 min. After the supernatant was removed, the cells were added to appropriate volume of extracellular fluid for re-suspending, and the cell density was controlled at 2-3×10^6/mL for use in IWB experiment. Extracellular fluid formulation (in mM): 140 NaCl, 5 KCl, 1 MgCl2, 10 HEPES, 0.5 EGTA, 10 Glucose (pH 7.4); intracellular fluid formulation (in mM): 140 CsCl, 10 HEPES, 5 EGTA, 0.1 CaCl2, 1 MgCl2 (pH 7.2). 28 mg/mL of amphotericin B was freshly prepared with DMSO on the day of experiment, and then final concentration of 0.1 mg/mL was prepared with intracellular fluid.
Population patch clamp (PPC) plate was used in IWB experiment. The entire detection process was automatically carried out by the instrument, that is, extracellular fluid was added into 384 wells of PPC plate, and after intracellular fluid was added under PPC plate (in plenum), 6 µL of cell fluid was added for sealing test, and finally the intracellular fluid in plenum was replaced with intracellular fluid containing amphotericin B to establish a whole-cell recording mode after perforating sealed cells. The sampling frequency for recording TPRA1 current was 10 kHz, the cells were clamped at 0 mV, the voltage stimulation command (channel protocol) was a ramp voltage from −100 mV to +100 mV for 300 ms. This voltage stimulation was applied every 10 s, mTRPA1 current was induced by 300 µM AITC.
Data recording and current amplitude measurement export were carried out by IWB software (version 2.5.3, Molecular Devices Corporation, Union City, CA). No statistics was recorded for holes with sealing impedance lower than 20 MΩ. The original current data was corrected by software for leak subtraction. TRPA1 current amplitude was measured at +100 mV. […] If IC50 value of HC030031 exceeded 3 times of the average IC50 value previously obtained on each plate, it would be re-tested. The dose-effect curve of compounds and IC50 were fitted and calculated by GraphPad Prism 5.02 (GraphPad Software, San Diego, CA).
Some compounds of the present invention were subjected to IC50 inhibition activity test using the IonWorks Barracuda (IWB) automated patch clamp detection method.

chemokine receptor CCR9 = target: T2, chemokine receptor CCR9 (Homo sapiens, UniProt P51686); experiment: CCR9 antagonistic activity, calcium flow (Fluo-4, FlexStation), CCL25 agonist; format: cell-based; conditions: antagonistic mode, CCL25 150 nM; for inhibition at 100 µM: read-out: Inhibition rate (%) (100 μM)
T2 construct: expressed in transfected cells
T2 sequence (P51686 1-369): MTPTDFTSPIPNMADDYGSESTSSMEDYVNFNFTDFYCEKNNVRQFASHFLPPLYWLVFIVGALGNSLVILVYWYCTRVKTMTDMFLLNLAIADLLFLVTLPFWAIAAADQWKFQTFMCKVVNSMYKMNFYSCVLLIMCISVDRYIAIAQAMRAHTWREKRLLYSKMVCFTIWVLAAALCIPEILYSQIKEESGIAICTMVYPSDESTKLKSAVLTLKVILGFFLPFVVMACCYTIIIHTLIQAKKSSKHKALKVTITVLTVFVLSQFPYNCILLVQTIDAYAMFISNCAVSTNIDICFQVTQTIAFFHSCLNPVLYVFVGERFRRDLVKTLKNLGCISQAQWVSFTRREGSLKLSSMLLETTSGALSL
Description: 2.1 Main reagents: DMEM culture medium (GIBCO); dimethyl sulfoxide (Sigma); FLUO-4, AM (Invitrogen) 2.2 Main instrument: Flexstation-3 (Molecular Devices) The test concentration gradient of the compound and replicates were set according to the requirement of testing ICSO. All test substances with 8 concentrations were set, with 3 replicates for each concentration. By establishing a cell line that cotransformed the receptor and G16, the receptor being activated can induce the activation of Gα16 protein, thereby activating phospholipase C (PLC) to produce IP3 and DAG. IP3 can bind to the IP3 receptor on the intracellular endoplasmic reticulum and mitochondria, leading to the release of intracellular calcium. Therefore, measuring changes in intracellular calcium can serve as a method for detecting the activation status of target receptor. Fluo-4/AM is a calcium fluorescent probe indicator used to measure calcium ion, as a non-polar lipophilic compound, under the action of cell lipase after entering cells, the AM group dissociates and releases Fluo-4; since Fluo-4 is a polar molecule, it is not easy to pass through lipid bilayers, allowing it to remain in the cell for a long time. Ultimately, the level of G protein activation can be reflected by measuring the excited fluorescence intensity. […] Cells stably expressing the target receptor/Ga16 were planted on a 96 well plate and cultured overnight. 2. The culture solution was removed from the well planted cells, then 40 μL/well of freshly prepared dye was added. The mixture was incubated at a constant temperature in a 37° C. incubator for 40 minutes. 3. The drug to be tested was diluted with calcium buffer and mixed well. 4. The dye was absorbed and discarded. After washed once with freshly prepared calcium buffer, 50 μL of calcium buffer that dissolved the drug to be tested was added for replacement. 5. The FlexStation II instrument was used for detection. Starting from the 15th second, […] dissolved with known agonist was automatically added by the instrument, and finally the fluorescence value at 525 nm was readed. The following formula was used to calculate the cell response rate (% Response) for each sample under each concentration. […] IC50 value was calculated using GraphPad Prism.

T1 sequence (Q8BLA8 whole entry): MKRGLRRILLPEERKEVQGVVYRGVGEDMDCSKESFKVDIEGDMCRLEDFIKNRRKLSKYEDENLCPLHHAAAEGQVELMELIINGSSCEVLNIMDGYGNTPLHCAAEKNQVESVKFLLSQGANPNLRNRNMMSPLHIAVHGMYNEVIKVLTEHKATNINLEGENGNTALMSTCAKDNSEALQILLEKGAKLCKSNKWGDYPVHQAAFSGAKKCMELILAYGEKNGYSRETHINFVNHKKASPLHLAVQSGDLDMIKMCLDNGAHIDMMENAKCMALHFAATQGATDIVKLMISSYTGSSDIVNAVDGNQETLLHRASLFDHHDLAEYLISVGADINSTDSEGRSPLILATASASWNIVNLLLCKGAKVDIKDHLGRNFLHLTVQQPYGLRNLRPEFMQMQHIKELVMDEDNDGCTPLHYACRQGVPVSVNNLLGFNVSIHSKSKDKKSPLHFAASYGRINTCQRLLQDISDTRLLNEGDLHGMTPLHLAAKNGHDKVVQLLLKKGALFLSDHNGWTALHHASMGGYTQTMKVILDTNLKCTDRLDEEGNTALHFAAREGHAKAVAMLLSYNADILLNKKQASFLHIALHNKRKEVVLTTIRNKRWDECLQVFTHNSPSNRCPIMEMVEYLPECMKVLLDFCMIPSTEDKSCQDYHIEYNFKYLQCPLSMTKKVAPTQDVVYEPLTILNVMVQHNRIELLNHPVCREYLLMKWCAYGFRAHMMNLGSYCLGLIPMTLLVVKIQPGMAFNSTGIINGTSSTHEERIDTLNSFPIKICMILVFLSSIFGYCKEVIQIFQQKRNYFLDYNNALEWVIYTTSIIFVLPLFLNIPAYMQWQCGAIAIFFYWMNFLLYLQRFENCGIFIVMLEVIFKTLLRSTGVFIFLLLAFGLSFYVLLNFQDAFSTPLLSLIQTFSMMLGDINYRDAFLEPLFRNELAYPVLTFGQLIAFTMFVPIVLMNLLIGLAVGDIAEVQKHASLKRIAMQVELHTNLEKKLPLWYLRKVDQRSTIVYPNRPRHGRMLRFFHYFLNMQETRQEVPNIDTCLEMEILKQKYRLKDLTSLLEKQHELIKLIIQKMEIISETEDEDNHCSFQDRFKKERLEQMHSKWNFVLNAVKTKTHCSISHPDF

Structure (SMILES) | IC50 (mTRPA1) [µM] | inhibition at 100 µM (chemokine receptor CCR9) [%] | IC50 (chemokine receptor CCR9) [µM]
CNCc1ccc(-c2ccco2)c(NS(=O)(=O)c2ccccc2OC)c1 [IA-5, 2-Methoxy-N-(2-(furan-2-yl)-5-((methylamino)methyl)phenyl)benzenesulfonamide] | 1 to 5 | 0 | > 100
CNCc1ccc(-c2ccoc2)c(NS(=O)(=O)c2cccs2)c1 [IA-44, N-(2-(furan-3-yl)-5-((methylamino)methyl)phenyl)thiophene-2-sulfonamide] | 1 to 5 | 12 | > 100
CNCc1ccc(-c2ccc(C)o2)c(NS(=O)(=O)c2ccccc2)c1 [IA-35, N-(5-((methylamino)methyl)-2-(5-methylfuran-2-yl)phenyl)benzenesulfonamide] | 1 to 5 | 35 | > 100
CNCc1ccc(-c2ccsc2)c(NS(=O)(=O)c2ccccc2)c1 [IA-49, N-(2-(thiophene-3-yl)-5-((methylamino)methyl)phenyl)benzenesulfonamide] | 1 to 5 | 19 | > 100
CNCc1ccc(-c2cccs2)c(NS(=O)(=O)c2ccc(F)cc2)c1 [IA-45, 4-Fluoro-N-(5-((methylamino)methyl)-2-(thiophene-2-yl)phenyl)benzenesulfonamide] | 1 to 5 | 30 | > 100
CNCc1ccc(-c2ccco2)c(NS(=O)(=O)c2ccc(F)cc2F)c1 [IA-11, 2,4-Difluoro-N-(2-(furan-2-yl)-5-((methylamino)methyl)phenyl)benzenesulfonamide] | 1 to 5 | 5 | > 100
CNCc1ccc(-c2ccco2)c(NS(=O)(=O)c2ccc3c(c2)CCO3)c1 [IA-15, N-(2-(furan-2-yl)-5-((methylamino)methyl)phenyl)-2,3-dihydrobenzofuran-5-sulfonamide] | 1 to 5 | 0 | > 100
CNCc1ccc(-c2ccco2)c(NS(=O)(=O)c2ccc(F)cc2)c1 [IA-1, 4-Fluoro-N-(2-(furan-2-yl)-5-((methylamino)methyl)phenyl)benzenesulfonamide] | 1 to 5 | 14 | > 100
CNCc1ccc(-c2ccoc2)c(NS(=O)(=O)c2ccsc2)c1 [IA-43, N-(2-(furan-3-yl)-5-((methylamino)methyl)phenyl)thiophene-3-sulfonamide] | 1 to 5 | 22 | > 100
CNCc1ccc(-c2ccco2)c(NS(=O)(=O)c2ccsc2)c1 [IA-21, N-(2-(furan-2-yl)-5-((methylamino)methyl)phenyl)thiophene-3-sulfonamide] | 1 to 5 | 25 | > 100
O=S(=O)(Nc1ccc(CNC2CC2)cc1-c1ccco1)c1ccsc1 [IA-33, N-(4-((cyclopropylamino)methyl)-2-(furan-2-yl)phenyl)thiophene-3-sulfonamide] | 1 to 5 | 10 | > 100
NCCc1ccc(NS(=O)(=O)c2ccsc2)c(-c2ccco2)c1 [IR, N-(4-(2-aminoethyl)-2-(furan-2-yl)phenyl)thiophene-3-sulfonamide] | 1 to 5 | 25 | > 100

More lines, now with the values ahead:

IC50 (mTRPA1) [µM] | inhibition at 100 µM (chemokine receptor CCR9) [%] | IC50 (chemokine receptor CCR9) [µM] | Structure (SMILES)
< 1 | 22 | > 100 | CN(c1ccc(CN)cc1-c1ccco1)S(=O)(=O)c1ccsc1 [IF, N-(4-(aminomethyl)-2-(furan-2-yl)phenyl)-N-methylthiophene-3-sulfonamide]
1 to 5 | 22 | > 100 | CNCc1ccc(-n2cccc2)c(NS(=O)(=O)c2ccccc2)c1 [IQ-1, N-(5-((methylamino)methyl)-2-(1H-pyrrole-1-yl)phenyl)benzenesulfonamide]
1 to 5 | 17 | > 100 | CNCc1ccc(-n2cccn2)c(NS(=O)(=O)c2ccccc2)c1 [IQ-2, N-(5-((methylamino)methyl)-2-(1H-pyrazol-1-yl)phenyl)benzenesulfonamide]
1 to 5 | 30 | > 100 | O=S(=O)(Nc1ccc(CN2CC(F)C2)cc1-c1ccco1)c1ccsc1 [IJ-2, N-(4-((3-fluoroazetidin-1-yl)methyl)-2-(furan-2-yl)phenyl)thiophene-3-sulfonamide]
< 1 | 15 | > 100 | NCc1ccc(-c2ccco2)c(NS(=O)(=O)c2ccccc2)c1 [ID-1, N-(5-(aminomethyl)-2-(furan-2-yl)phenyl)benzenesulfonamide]
< 1 | 10 | > 100 | CNCc1ccc(N(C)S(=O)(=O)c2ccsc2)c(-c2ccco2)c1 [IB, N-(2-(furan-2-yl)-4-((methylamino)methyl)phenyl)-N-methylthiophene-3-sulfonamide]
1 to 5 | 11 | > 100 | NCc1ccc(NS(=O)(=O)c2ccsc2)c(-c2cc[nH]n2)c1 [ID-7, N-(4-(aminomethyl)-2-(1H-pyrazole-3-yl)phenyl)thiophene-3-sulfonamide]
< 1 | 13 | > 100 | NCc1ccc(-c2ccco2)c(NS(=O)(=O)c2ccsc2)c1 [ID-3, N-(5-(aminomethyl)-2-(furan-2-yl)phenyl)thiophene-3-sulfonamide]
